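Method: 48-hour compound exposure of cells in 96-well plates, five concentrations, linear interpolation of endpoints. At the GI50, growth is halved.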 Active and inactive are the calls of the source. Cut-off read from the data, not from the text of the source: active = GI50 up to about 1.1 µM and inactive = higher.
How the values were obtained:
Assay in all cases: growth of human tumour cells (NCI), 48 h
[1] = tested on: M19-MEL
[2] = tested on: MDA-MB-435
[3] = tested on: SNB-78
[4] = tested on: OVCAR-3
[5] = tested on: EKVX
[6] = tested on: UO-31
[7] = tested on: SNB-75
[8] = tested on: Hs-578T
[9] = tested on: DLD-1
[10] = tested on: PC-3
[11] = tested on: BT-549
[12] = tested on: KM-20L2
[13] = tested on: XF498
[14] = tested on: NCI-H23
[15] = tested on: M14
[16] = tested on: UACC-62
[17] = tested on: NCI-H460
[18] = tested on: IGROV-1
[19] = tested on: DMS-114
[20] = tested on: SNB-19
[21] = tested on: HL-60
[22] = tested on: DU-145
[23] = tested on: K562
[24] = tested on: SK-MEL-5
[25] = tested on: 786-0
[26] = tested on: MOLT-4
[27] = tested on: SW-620
[28] = tested on: UACC-257
[29] = tested on: RXF 393
[30] = tested on: CCRF-CEM
[31] = tested on: CAKI-1
[32] = tested on: MCF7
[33] = tested on: LOX IMVI
[34] = tested on: A549
[35] = tested on: HOP-92
[36] = tested on: SF-268
[37] = tested on: Malme-3M
[38] = tested on: COLO 205
[39] = tested on: OVCAR-8
[40] = tested on: HCC 2998
[41] = tested on: ACHN
[42] = tested on: SK-OV-3
[43] = tested on: SN12C
[44] = tested on: HCT-15
[45] = tested on: T47D
[46] = tested on: NCI-H522
[47] = tested on: HOP-18
[48] = tested on: TK-10
[49] = tested on: SF-539
[50] = tested on: NCI-H226
[51] = tested on: SF-295
[52] = tested on: OVCAR-5
[53] = tested on: SK-MEL-2
[54] = tested on: HCT-116
[55] = tested on: MDA-N
[56] = tested on: HT-29
[57] = tested on: DMS-273
[58] = tested on: SR
[59] = tested on: NCI/ADR-RES
[60] = tested on: OVCAR-4
[61] = tested on: HOP-62
[62] = tested on: MDA-MB-231
[63] = tested on: A498
[64] = tested on: SK-MEL-28

In the case of `CCc1c(CNc2ccc(C(=O)NC(CC(=O)O)C(=O)O)cc2)ccc2nc(N)nc(N)c12` (centres undefined), the GI50 [1] was 0.133 µM (active), the GI50 [2] was < 0.01 µM (active) and the GI50 [3] was > 60.3 µM (inactive). For the same compound, the GI50 [4] was 10.1 µM (inactive), the GI50 [5] was > 54.6 µM (inactive) and the GI50 [6] was 0.75 µM (active). For the same compound, the GI50 [7] was 3.52 µM (inactive), the GI50 [8] was > 1000 µM (inactive) and the GI50 [9] was < 0.0223 µM (active). The GI50 [10] was 305 µM (inactive), the GI50 [11] was 25.4 µM (inactive) and the GI50 [12] was 0.451 µM (active). The GI50 [13] was > 100 µM (inactive), the GI50 [14] was < 0.0291 µM (active) and the GI50 [15] was < 0.01 µM (active). The GI50 [16] was < 0.0177 µM (active), the GI50 [17] was < 0.0158 µM (active) and the GI50 [18] was < 0.0177 µM (active). The GI50 [19] was < 0.0262 µM (active), the GI50 [20] was 2.39 µM (inactive) and the GI50 [21] was < 0.0316 µM (active). For the same compound, the GI50 [22] was 0.0125 µM (active), the GI50 [23] was < 0.01 µM (active) and the GI50 [24] was < 0.0346 µM (active). The GI50 [25] was < 0.01 µM (active), the GI50 [26] was < 0.0182 µM (active) and the GI50 [27] was < 0.0138 µM (active). The GI50 [28] was 5.19 µM (inactive), the GI50 [29] was > 4.65 µM (inactive) and the GI50 [30] was < 0.0128 µM (active). The GI50 [31] was < 0.0198 µM (active), the GI50 [32] was < 0.0182 µM (active) and the GI50 [33] was < 0.0162 µM (active). The GI50 [34] was < 0.0169 µM (active), the GI50 [35] was 6.44 µM (inactive) and the GI50 [36] was < 0.0198 µM (active). For the same compound, the GI50 [37] was 0.953 µM (active), the GI50 [38] was 16.7 µM (inactive) and the GI50 [39] was < 0.0184 µM (active). The GI50 [40] was 0.0465 µM (active), the GI50 [41] was < 0.01 µM (active) and the GI50 [42] was > 20 µM (inactive). For the same compound, the GI50 [43] was < 0.0288 µM (active), the GI50 [44] was less than 0.0164 µM and the GI50 [45] was 20.5 µM (inactive). The GI50 [46] was 0.914 µM (active), the GI50 [47] was > 61.9 µM (inactive) and the GI50 [48] was 15.3 µM (inactive). The GI50 [49] was < 0.0292 µM (active), the GI50 [50] was > 100 µM (inactive) and the GI50 [51] was 0.0371 µM (active). The GI50 [52] was 1.82 µM (inactive), the GI50 [53] was > 100 µM (inactive) and the GI50 [54] was < 0.01 µM (active). For the same compound, the GI50 [55] was < 0.01 µM (active), the GI50 [56] was < 0.0178 µM (active) and the GI50 [57] was < 0.0202 µM (active). The GI50 [58] was < 0.01 µM (active), the GI50 [59] was 0.0288 µM (active) and the GI50 [60] was > 48.8 µM (inactive). For the same compound, the GI50 [61] was 0.267 µM (active), the GI50 [62] was > 100 µM (inactive) and the GI50 [63] was 2.03 µM (inactive). The GI50 [64] was 10.2 µM (inactive).
